What was measured:
Sprague-Dawley rats = assay: Effect on blood lipid level in rats fed high-cholesterol diet (Experimental Example 1); assay type: in vivo, rat; conditions: rats on 1% cholesterol diet, 5 weeks; for Atherogenic index (AI): (total cholesterol − HDL cholesterol)/HDL cholesterol; for HDL-cholesterol/total cholesterol / HDL-cholesterol / Total cholesterol / Triglyceride: plasma, 0.02% lovastatin or 0.046% BN30028 in diet; for HDL-cholesterol / Total cholesterol / Triglyceride: average ± standard deviation
From the text: 30 of 4-week-old male white Sprague-Dawley rats (Bio Genomics Inc., Korea), each weighing about […], were divided into three groups by a randomized block design. The rats of the three groups were fed with three different high-cholesterol diets, i.e., AIN-76 laboratory animal diets (TEKLAD premier Co., Madison, Wis., U.S.A.) containing 1% cholesterol (Control group), 1% cholesterol plus 0.02% lovastatin (Choongwae Pharma. Corp., Korea) and 1% cholesterol plus 0.046% BN30028, respectively, as shown in Table I.
The rats were allowed free access to the specified diets and water for 5 weeks and the ingestion amounts were recorded daily. The rats were weighed every 5 days, and then the record was analyzed.
Blood samples were taken from vena hypogastrica of the rats of the three dietary groups raised in Step 1 and centrifuged to separate plasma. The total cholesterol level was measured by using a diagnosis kit purchased from Sigma (USA), Cat. No.: C0534, applying the method of Allain et al. (Allain et al., Clin. Chem., 20, 470-475 (1974)). The HDL fraction was separated by using a kit purchased from Sigma, Cat. No.: 352-1 applying the heparin-manganese precipitation method (Waenic R. G. and Albers J. J., J Lipid Res., 19, 65-76 (1978)) and the HDL-cholesterol level was measured by using a kit purchased from Sigma, Cat. No.: C9908. The triglyceride level was measured using a kit purchased from Sigma, Cat. No.: 336-10) applying the lipase-glycerol phosphate oxidase method (McGowan, M. W. et al., Clin. Chem., 29, 538-542(1983)). All the data are expressed by average±standard deviation.

[1] = tested on: New Zealand White rabbits; assay: Abnormal fat-containing cells in liver of cholesterol-fed rabbits (Experimental Example 3); assay type: in vivo, rabbit; conditions: 1% cholesterol diet, 8 weeks; for Microscopic observation of liver cells (fatty liver): FIGS. 2a-2c; for Grade of proportion of abnormal fat-containing cells in the liver lobules around the central vein: grades 1+(0-25%), 2+(26-50%), 3+(51-75), 4+(76-100%), lovastatin 1 mg/kg or BN30028 0.05 wt %
Method: Thereafter, a piece of each organ was fixed in 10% neutral formalin for at least 24 hours. The fixed organ piece was washed sufficiently with tap water, dehydrated stepwise with 70%, 80%, 90% and 100% ethanol and, then, embedded in a paraffin by employing SHANDON, Histocentre 2, USA. The embedded organ piece was sectioned in a thickness of 4 μm with a microtome (LEICA, RM2045, Germany) and stained with H & E (hematoxylin and eosin). The stained organ specimen was made transparent with xylene, mounted with permount, and then observed under a microscope.
In order to quantitatively evaluate the effects of feeding a high cholesterol diet with test substances on liver tissues, the liver specimens prepared in step 3 of the Experimental Example 3 were observed under a microscope with referring to the procedure described by Fogt F. et al. (Fogt F. and Nanji A., Toxicology and Applied Pharmacology, 136, 87-93, 1996) and the procedure described by Keegan et al. (Keegan A., et al., Journal of Hepatology 23: 591-600, 1995). The specimens were classified into for grades: 1+(0-25%), 2+(26-50%), 3+(51-75) and 4+(76-100%) according to the proportion of abnormal fat-containing cells in the liver lobules around the central vein. The significant differences between the test groups were tested by student t-test using Microsoft excel (version 7.0) program

ACAT = ACAT activity in liver microsomes of treated rabbits (Experimental Example 4); assay type: in vivo, rabbit; conditions: liver microsomes of rabbits fed 8 weeks; for ACAT activity: lovastatin 1 mg/kg or BN30028 0.05 wt %, average ± standard deviation; for ACAT activity inhibition: relative to control group
Method: The rabbits raised as described in step 1 of the Experimental Example 2 were sacrificed by decapitation and the livers were removed from the rabbits. 1 g of the liver tissue taken from each rabbit was homogenized in 5 ml of homogenization medium (0.1 M KH2PO4, pH 7.4, 0.1 mM EDTA and 10 mM β-mercaptoethanol). The homogenate was centrifuged at 3,000×g for 10 minutes at 4° C. and the supernatant thus obtained was centrifuged at 15,000×g for 15 minutes at 4° C. to obtain a supernatant. The resulting supernatant was put into an ultracentrifuge tube (Beckman) and centrifuged at 100,000×g for 1 hour at 4° C. to obtain microsomal pellets, which were then suspended in 3 ml of the homogenization medium and centrifuged at 100,000×g for 1 hour at 4° C. The pellets thus obtained were suspended in 1 ml of the homogenization medium. The protein concentration of the resulting suspension was determined by Lowry's method and then adjusted to the range of 4 to 8 mg/ml. The resulting suspension was stored in a deep freezer (Biofreezer, Forma Scientific Inc.).
6.67 μl, of 1 mg/ml cholesterol solution in acetone was mixed with 6 μl of 10% Triton WR-1339 (Sigma Co.) in acetone. Acetone was removed from the mixture by evaporation under a nitrogen flow. To the resulting mixture, distilled water was added to adjust the concentration of cholesterol to 30 mg/ml.
To 10 μl of the resulting aqueous cholesterol solution, 10 μl of 1 M KH2PO4 (pH 7.4), 5 μl of 0.6 mM bovine serum albumin (BSA), 10 μl of the microsome solution obtained in Step 1 and 55 μl of distilled water (total 90 μl) were added. The mixture was pre-incubated in a water bath at 37° C. for 30 minutes.
10 μl of (1-^14C) oleyl-CoA solution (0.05 μCi, final concentration: 10 μM) was added to the pre-incubated mixture and the resulting mixture was incubated in a water bath at 37° C. for 30 minutes. 500 μl of isopropanol:heptane mixture (4:1 (v/v)), 300 μl of heptane and 200 μl of 0.1 M KH2PO4 (pH 7.4). were added to the mixture. The mixture was mixed vigorously using a vortex mixer and then allowed to stand at room temperature for 2 minutes.
200 μl of the resulting supernatant was put in a scintillation bottle and 4 ml of scintillation fluid (Lumac) was added thereto. The mixture was assayed for radioactivity with 1450 Microbeta liquid scintillation counter (Wallacoy, Finland). ACAT activity was calculated as picomoles of cholesteryl oleate synthesized per minute per mg protein (pmoles/min/mg protein). All the data are expressed by average±standard deviation(p<0.05).

Row | SMILES | Atherogenic index (AI) (Sprague-Dawley rats) | HDL-cholesterol/total cholesterol (Sprague-Dawley rats) [%] | HDL-cholesterol (Sprague-Dawley rats) [mg/dL] | Total cholesterol (Sprague-Dawley rats) [mg/dL] | Triglyceride (Sprague-Dawley rats) [mg/dL] | Reduction of total plasma cholesterol level as compared to the control group (Sprague-Dawley rats) [%] | Reduction of triglyceride as compared to the control group (Sprague-Dawley rats) [%] | Microscopic observation of liver cells (fatty liver) [1] | Proportion of fat-modified cells compared to control ([1]; p<0.05) | Grade of proportion of abnormal fat-containing cells in the liver lobules around the central vein [1] | ACAT activity (ACAT) [pmol/minute/mg protein] | ACAT activity inhibition (ACAT) [%] | Increase of triglyceride as compared to the control group (Sprague-Dawley rats) [%]
1 | COC(=O)C(Cc1ccccc1)NC(=O)CCc1ccc(O)c(O)c1 (centres unmarked) [BN30028, 2-[3-(3,4-dihydroxyphenyl)propionylamino]-3-phenyl propionic acid methyl ester] | 1.84 ± 0.2 | 35.1 ± 0.6 | 25.6 ± 0.6 | 72.8 ± 3.7 | 47.6 ± 1.6 | 12 | 15 | almost all liver cells of the rabbits administered with BN30028 are of a normal shape | significantly reduced | 3.57 ± 0.35 | 93.9 ± 21.5 | 26.2 | –
2 | CC[C@H](C)C(=O)O[C@H]1C[C@@H](C)C=C2C=C[C@H](C)[C@H](CC[C@@H]3C[C@@H](O)CC(=O)O3)[C@H]21 [Lovastatin, reference compound] | 2.3 ± 0.2 | 30.2 ± 0.5 | 23.4 ± 0.4 | 77.4 ± 1.8 | 69.0 ± 4.7 | 6 | – | many cells containing excessive fat were observed around the central vein | – | 3.97 ± 0.15 | 96.2 ± 21.3 | 23.8 | 25
